According to US20060173015A1, “Cyclohexyldiamines as selective alpha 1a/1d adrenoreceptor antagonists for the treatment of benign prostatic hypertrophy and lower urinary tract symptoms” (priority 2004, published 2006):

Experiments:
[1] = biological target: T1, α1b-AR (Homo sapiens, UniProt P35368); assay: α1-Adrenergic receptor radio-ligand (125I-HEAT) binding assay, α1b subtype; conditions: Receptor Binding, Ki α1b-AR, COS-7 cell membranes, 125I-HEAT
T1 sequence (P35368 1-520): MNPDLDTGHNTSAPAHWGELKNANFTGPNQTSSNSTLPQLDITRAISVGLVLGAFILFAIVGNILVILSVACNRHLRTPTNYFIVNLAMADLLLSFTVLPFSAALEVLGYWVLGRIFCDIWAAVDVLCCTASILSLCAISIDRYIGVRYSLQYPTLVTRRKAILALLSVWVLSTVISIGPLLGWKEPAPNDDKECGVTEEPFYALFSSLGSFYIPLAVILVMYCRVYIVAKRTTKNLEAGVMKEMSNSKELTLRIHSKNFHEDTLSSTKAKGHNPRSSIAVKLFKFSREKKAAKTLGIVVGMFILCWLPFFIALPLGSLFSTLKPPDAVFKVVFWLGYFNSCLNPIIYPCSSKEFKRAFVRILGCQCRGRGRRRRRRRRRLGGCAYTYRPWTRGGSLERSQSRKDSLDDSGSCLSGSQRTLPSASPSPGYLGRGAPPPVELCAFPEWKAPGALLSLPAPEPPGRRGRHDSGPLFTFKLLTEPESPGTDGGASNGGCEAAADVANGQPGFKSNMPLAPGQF

[2] = biological target: T2, α1d-AR (Homo sapiens, UniProt P25100); assay: α1-Adrenergic receptor radio-ligand (125I-HEAT) binding assay, α1d subtype; conditions: COS-7 cell membranes, 125I-HEAT; read-out: Receptor Binding, Ki α1d-AR
T2 construct: expressed in transfected cells; host or cells: COS-7
T2 sequence (P25100 1-572): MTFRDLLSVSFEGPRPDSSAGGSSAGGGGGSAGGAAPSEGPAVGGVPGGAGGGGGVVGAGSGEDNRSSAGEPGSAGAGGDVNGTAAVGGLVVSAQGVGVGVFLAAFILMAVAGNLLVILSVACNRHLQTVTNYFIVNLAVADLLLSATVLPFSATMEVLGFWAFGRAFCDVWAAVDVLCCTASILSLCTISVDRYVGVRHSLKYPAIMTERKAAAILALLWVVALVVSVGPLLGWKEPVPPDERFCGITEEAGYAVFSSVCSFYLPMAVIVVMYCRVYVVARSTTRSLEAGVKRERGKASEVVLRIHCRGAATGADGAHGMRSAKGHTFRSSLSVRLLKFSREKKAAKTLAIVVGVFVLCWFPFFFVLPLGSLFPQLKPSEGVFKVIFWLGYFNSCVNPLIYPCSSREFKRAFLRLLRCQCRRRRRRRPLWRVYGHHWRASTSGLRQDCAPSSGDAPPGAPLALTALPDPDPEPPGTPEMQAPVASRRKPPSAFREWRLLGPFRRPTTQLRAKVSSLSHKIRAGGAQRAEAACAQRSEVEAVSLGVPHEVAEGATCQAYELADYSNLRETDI
Method: (§1) α1-Adrenergic Receptor Binding Assay: Preparation of COS Cell Membranes
(§2) Membranes were prepared from COS-7 cells that had been transfected with one of the three α1-AR subtypes by the following method. COS cells from ten 100 mm tissue culture plates were scraped into 5 mL TE (50 mM Tris-HCl, 5 mM EDTA, pH 7.4). The cell suspension was disrupted with a Brinkman Polytron, setting 8, for 10 sec. The disrupted cells were centrifuged at 1000×g for 10 min at 4° C. Supernatants were centrifuged at 34,500×g for 20 min at 4° C. The membrane pellets were suspended in 2 mL TNE (50 mM Tris-HCl, 5 mM EDTA, 150 mM NaCl, pH7.4). An aliquot of the membrane suspension was stored at −70° C. until use. The protein concentration was determined using the BioRad DC protein assay kit following membrane solubilization with Triton X-100.
(§3) Radio-Ligand Binding Assay
Triplicate determinations of radio-ligand binding in the presence of increasing: concentrations of testing compound were made. The reagents were added to 96-well polypropylene plate wells using the Biomek 1000 robot (Beckman Instruments). […] The plate was incubated at rt for 1 hr. The contents of the wells were filtered through a GF/C membrane Unifilter plate (Packard Instruments) using the Packard Filtermate cell harvester. The filter plates were dried in a vacuum oven for 30 min at 40° C. 25 μL Microscint 20 liquid scintillation fluid (Packard Instuments) was added to each well. The radioactive content was analyzed in the TopCount microplate scintillation counter (Packard Instruments).

[3] = biological target: T3, α1a-AR (Homo sapiens, UniProt P35348); assay: α1-Adrenergic receptor radio-ligand (125I-HEAT) binding assay, α1a subtype; conditions: COS-7 cell membranes, 125I-HEAT
T3 construct: expressed in transfected cells; host or cells: COS-7
T3 sequence (P35348 1-466): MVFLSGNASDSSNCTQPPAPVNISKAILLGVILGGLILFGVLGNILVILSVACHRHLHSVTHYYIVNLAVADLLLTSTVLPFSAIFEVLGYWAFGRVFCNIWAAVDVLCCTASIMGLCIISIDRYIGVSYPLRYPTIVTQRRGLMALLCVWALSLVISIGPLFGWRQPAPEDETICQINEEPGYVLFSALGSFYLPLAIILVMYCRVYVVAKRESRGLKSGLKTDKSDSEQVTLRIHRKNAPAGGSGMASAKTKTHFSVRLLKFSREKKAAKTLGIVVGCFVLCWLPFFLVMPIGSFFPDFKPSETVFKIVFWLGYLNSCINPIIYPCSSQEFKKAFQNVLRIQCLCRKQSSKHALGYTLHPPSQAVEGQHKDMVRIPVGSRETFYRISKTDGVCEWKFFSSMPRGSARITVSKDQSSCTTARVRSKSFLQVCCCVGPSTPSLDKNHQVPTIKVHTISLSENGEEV
Method: as §1, §2, §3
Triplicate determinations of radio-ligand binding in the presence of increasing: concentrations of testing compound were made. The reagents were added to 96-well polypropylene plate wells using the Biomek 1000 robot (Beckman Instruments). Each assay well contained 140 μl TNE, 25 μL ^125I-HEAT (specific activity 2200 Ci/mmol, Dupont-NEN, 50 pM final), 10 μL testing compound dissolved in DMSO (1 pM to 10 μM in half-log increments, final), and 25 μL appropriate α1-AR membrane subtype suspension in TNE (0.5 ng/μL for the α1a and α1b subtypes and 13 ng/μL for the α1d subtype). The plate was incubated at rt for 1 hr. The contents of the wells were filtered through a GF/C membrane Unifilter plate (Packard Instruments) using the Packard Filtermate cell harvester. The filter plates were dried in a vacuum oven for 30 min at 40° C. 25 μL Microscint 20 liquid scintillation fluid (Packard Instuments) was added to each well. The radioactive content was analyzed in the TopCount microplate scintillation counter (Packard Instruments).

Structure (SMILES)	Ki [1]	Ki [2]	Ki [3]
COc1ccc(C)cc1S(=O)(=O)N[C@H]1CC[C@H](N2CCN(c3ccccc3OC(C)C)CC2)CC1 [Cpd 32, N-trans-{4-[4-(2-Isopropoxy-phenyl)-piperazin-1-yl]-cyclohexyl}-2-methoxy-5-methyl-benzenesulfonamide]	218 nM	31 nM	0.9 nM
CC(C)Oc1ccccc1N1CCN([C@H]2CC[C@H](NS(=O)(=O)c3ccccc3S(C)(=O)=O)CC2)CC1 [Cpd 33, N-trans-{4-[4-(2-Isopropoxy-phenyl)-piperazin-1-yl]-cyclohexyl}-2-methanesulfonyl-benzenesulfonamide]	118 nM	2.8 nM	12.5 nM
CC(C)Oc1ccccc1N1CCN([C@H]2CC[C@H](NS(=O)(=O)c3ccc(C(F)(F)F)cc3)CC2)CC1 [Cpd 37, N-trans-{4-[4-(2-Isopropoxy-phenyl)-piperazin-1-yl]-cyclohexyl}-4-trifluoromethyl-benzenesulfonamide]	931 nM	65 nM	67 nM
CC(C)Oc1ccccc1N1CCN([C@H]2CC[C@H](NS(=O)(=O)c3ccc(F)cc3)CC2)CC1 [Cpd 38, 4-Fluoro-N-trans-{4-[4-(2-isopropoxy-phenyl)-piperazin-1-yl]-cyclohexyl}-benzenesulfonamide]	301 nM	36 nM	1.3 nM
Cc1c(Cl)cccc1S(=O)(=O)N[C@H]1CC[C@H](N2CCN(c3ccccc3OC(C)C)CC2)CC1 [Cpd 39, 3-Chloro-N-trans-{4-[4-(2-isopropoxy-phenyl)-piperazin-1-yl]-cyclohexyl}-2-methyl-benzenesulfonamide]	554 nM	5.4 nM	1.1 nM
CC(C)Oc1ccccc1N1CCN([C@H]2CC[C@H](NS(=O)(=O)c3ccc(F)c(Cl)c3)CC2)CC1 [Cpd 42, 3-Chloro-4-fluoro-N-trans-{4-[4-(2-isopropoxy-phenyl)-piperazin-1-yl]-cyclohexyl}-benzenesulfonamide]	2300 nM	72 nM	6.6 nM
CC(C)Oc1ccccc1N1CCN([C@H]2CC[C@H](NS(=O)(=O)c3ccc(OC(F)(F)F)cc3)CC2)CC1 [Cpd 45, N-trans-{4-[4-(2-Isopropoxy-phenyl)-piperazin-1-yl]-cyclohexyl}-4-trifluoromethoxy-benzenesulfonamide]	1250 nM	111 nM	100 nM
Cc1ccc(S(=O)(=O)N[C@H]2CC[C@H](N3CCN(c4ccccc4OC(C)C)CC3)CC2)cc1Cl [Cpd 46, 3-Chloro-N-trans-{4-[4-(2-isopropoxy-phenyl)-piperazin-1-yl]-cyclohexyl}-4-methyl-benzenesulfonamide]	193 nM	16 nM	1.5 nM
COc1ccc([N+](=O)[O-])cc1S(=O)(=O)N[C@H]1CC[C@H](N2CCN(c3ccccc3OC(C)C)CC2)CC1 [Cpd 47, N-trans-{4-[4-(2-Isopropoxy-phenyl)-piperazin-1-yl]-cyclohexyl}-2-methoxy-5-nitro-benzenesulfonamide]	173 nM	22 nM	1 nM

The remaining compounds from weak to strong by Ki [1], led by results:

Ki [1]	Ki [2]	Ki [3]	Structure (SMILES)
844 nM	246 nM	18.1 nM	CC(C)Oc1ccccc1N1CCN([C@H]2CC[C@H](NS(=O)(=O)c3ccccc3C(F)(F)F)CC2)CC1 [Cpd 41, N-trans-{4-[4-(2-Isopropoxy-phenyl)-piperazin-1-yl]-cyclohexyl}-2-trifluoromethyl-benzenesulfonamide]
714 nM	66 nM	11 nM	COc1ccc(F)cc1S(=O)(=O)N[C@H]1CC[C@H](N2CCN(c3ccccc3OC(C)C)CC2)CC1 [Cpd 43, 5-Fluoro-N-trans-{4-[4-(2-isopropoxy-phenyl)-piperazin-1-yl]-cyclohexyl}-2-methoxy-benzenesulfonamide]
596 nM	8.6 nM	1.6 nM	CC(C)Oc1ccccc1N1CCN([C@H]2CC[C@H](NS(=O)(=O)c3ccc(Cl)cc3Cl)CC2)CC1 [Cpd 29, 2,4-Dichloro-N-trans-{4-[4-(2-isopropoxy-phenyl)-piperazine-1-yl]-cyclohexyl}-benzenesulfonamide]
545 nM	24.5 nM	0.73 nM	CC(C)Oc1ccccc1N1CCN([C@H]2CC[C@H](NS(=O)(=O)c3cccc(F)c3)CC2)CC1 [Cpd 50, 3-Fluoro-N-trans-{4-[4-(2-isopropoxy-phenyl)-piperazin-1-yl]-cyclohexyl}-benzenesulfonamide]
441 nM	27.3 nM	8.9 nM	CC(C)Oc1ccccc1N1CCN([C@H]2CC[C@H](NS(=O)(=O)c3cc(Cl)ccc3F)CC2)CC1 [Cpd 40, 5-Chloro-2-fluoro-N-trans-{4-[4-(2-isopropoxy-phenyl)-piperazin-1-yl]-cyclohexyl}-benzenesulfonamide]
258 nM	1.5 nM	24.5 nM	COc1ccc(C(F)(F)F)cc1S(=O)(=O)N[C@H]1CC[C@H](N2CCN(c3ccccc3OC(C)C)CC2)CC1 [Cpd 48, N-trans-{4-[4-(2-Isopropoxy-phenyl)-piperazin-1-yl]-cyclohexyl}-2-methoxy-5-trifluoromethyl-benzenesulfonamide]
201 nM	2.5 nM	6.3 nM	CC(C)Oc1ccccc1N1CCN([C@H]2CC[C@@H](NS(=O)(=O)c3ccccc3[N+](=O)[O-])CC2)CC1 [Cpd 26]
111 nM	5.2 nM	13.7 nM	CC(C)Oc1ccccc1N1CCN([C@H]2CC[C@@H](NS(=O)(=O)c3ccccc3)CC2)CC1 [Cpd 25]
108 nM	3.3 nM	3.5 nM	CC(C)Oc1ccccc1N1CCN([C@H]2CC[C@@H](NS(=O)(=O)c3cccc(F)c3)CC2)CC1 [Cpd 22, 3-Fluoro-N-cis-{4-[4-(2-isopropoxy-phenyl)-piperazin-1-yl]-cyclohexyl}-benzenesulfonamide]
